# Experimental data as given in patent US20250205195A1, “BENZYLOXY-BENZYLAMINYL AMINO ACID DERIVATIVE FOR ADJUSTING TSLP/TSLPR SIGNAL TRANSMISSION” (AMTIXBIO CO., LTD., priority 2021, published 2025).
# Key:
# TSLP = assay: TNF-α-induced TSLP in HaCaT cells (ELISA); format: cell-based, human
# Procedure: Human keratinocyte HaCaT cells (obtained from the Korean Cell Line Bank) were seeded in a 12-well plate at an initial density of 2×10^5 cells/well and cultured at 37° C. for 16 to 24 hours. FK506 (Sigma), compounds 27 and 29 of the present invention were then added to the HaCaT cell culture medium at final concentrations of 0, 1, 2, 4, and 8 µg/mL, and the cells were cultured at 37° C. for 1 hour. Next, to induce TSLP, the culture medium was treated with TNF-α (Sigma-Aldrich, USA) to a final concentration of 100 ng/mL, and the cells were cultured for an additional 24 hours at 37° C. The culture supernatant was collected, and the amount of induced TSLP from HaCaT cells was determined using an ELISA kit (R&D Systems, USA) according to the manufacturer's instructions. […] Under the same conditions, to compare the TSLP reduction efficiency R.R. (Reduction rate) of compound 27, positive control compound and compound 29, equal amounts of compounds 27, 29 and FK506 (Sigma-Aldrich, USA) were pretreated for 1 hour. The amount of TSLP released into the culture supernatant from HaCaT cells stimulated by TNF-α was quantitatively analyzed and presented in Table 3 and FIG. 3 (c).
# p-STAT5 = assay: TSLP-induced p-STAT5 in bone marrow-derived dendritic cells (BMDCs), Western blot; format: cell-based, mouse
# Procedure: C57BL/6J mice (JA BIO, DBL-0011, male, 6-12 weeks old) were euthanized, and femurs and tibias were separated after cervical dislocation and then were stored in PBS (HyClone, Cat No. SH30028.02). After removing tissues as much as possible from femurs and tibias, both ends of the bones were cut vertically, and bone marrow was quickly collected with a 5 mL syringe (Korea Vaccine, 5 cc syringe 22 g). After centrifugation at 1800 rpm for 3 minutes, the supernatant was discarded, 10 mL PBS was added to resuspend the cells, and the mixture was filtered through a 100 µm cell strainer. […]
# The obtained BMDCs were pre-treated with compound 27, Jak1 inhibitor (Filgotinib, Selleck, Cat No. JS7605), or Jak2 inhibitor (SD-1029, Sigma, Cat No. 573098) 30 minutes or 1 hour prior to treatment. […] After quantifying the protein using the BCA protein assay kit (Thermo, Cat No. 23225), 5×SDS-PAGE loading buffer (Biosesang, Cat No. SF2002-110-00) was added, boiled for 5 minutes at 103° C., and stored at −20° C. […]
# BR1706516)] for 2 hours at room temperature. After washing with TBS-T, the membrane was incubated with ECL solution (Thermo, Cat No. 32209), and protein bands were detected using the iBright imaging system (Invitrogen, Model No. FL1500). Each band intensity was measured using ImageJ software (version 1.38; National Institutes of Health), and the pSTAT5/STAT ratio was calculated. […]
# [1] = HaCaT culture supernatant, TNF-α stimulated, 1 h pretreatment, equal amounts of compounds
compound,measurement,setting,value
"CCC(NC)C(=O)NCc1ccc(OCc2ccc(C(F)(F)F)cc2)cc1 (racemic) [Compound 27, (R)/(S)-2-(methylamino)-N-(4-((4-trifluoromethyl)benzyl)oxy)benzyl)butanamide]",amount of induced TSLP with increasing concentration,"TSLP; HaCaT cells, 0, 1, 2, 4 and 8 µg/mL, TNF-α 100 ng/mL, 24 h",decreased
same,R.R (Reduction rate) of TSLP,TSLP; [1],54%
same,TSLP,TSLP; [1],234 ng/mL
same,reduction in p-STAT5,"p-STAT5; 2 pM, compared to the TSLP-treated group",51%
same,p-STAT5 (pSTAT5/STAT ratio),"p-STAT5; BMDCs, TSLP treatment",significantly reduced
